Measurements: paper PMC5310922, “A high-throughput phenotypic screen identifies clofazimine as a potential treatment for cryptosporidiosis” (PLoS Neglected Tropical Diseases, 2017)
Like-named read-outs stand apart in the source and are kept apart here.

How the values were obtained:
in vitro = settings: human
Experimental: (§1) Cells were then plated (5 μL/well) into 1536-well assay plates at a density of 5.5×10^5 cells/mL (2,750 cells/well).
Plates were then washed twice with phosphate buffered saline (PBS). […] To prevent non-specific binding, the cells were blocked with SuperBlock™ T20 blocking agent (Thermo) for 1 h at room temperature. Cryptosporidium parasites were stained with 1 μg/mL fluorescein isothiocyanate (FITC)-conjugated Vicia villosa lectin (Vector Laboratories) in 1:10 diluted SuperBlock™ in PBS-T, supplemented with 3 μM 4',6-diamidino-2-phenylindole (DAPI) to visualize host cell nuclei. Staining was for 1 h at room temperature in the dark. Finally, cells were washed twice with PBS-T and the plates were sealed with adhesive foil. The plates were imaged with a CellInsight CX5 High Content Screening Platform (Thermo) with a 10× objective. […] For 1536-well format assays (primary screening, triplicate reconfirmation, and dose-response reconfirmation, one microscopic field (802,511.39 μm^2) per well, and for the 384-well washout assay, 4 fields per well were captured. The software identified primary objects (HCT-8 host cells) and spots within allowed distances to the nuclei (Cryptosporidium). Both cytotoxicity against HCT-8 cells (number of nuclei relative to DMSO-treated controls) and Cryptosporidium inhibition (spot counts relative to DMSO-treated controls) were assessed.
Images were processed by the HCS Studio Scan software, and Selected Object Count (HCT-8 cells) and Spot Count (Cryptosporidium) were analyzed in Genedata Screener (v13.0-Standard). Spot Count and Selected Object Count were normalized to neutral controls minus inhibitors (floxuridine for Spot Count, and puromycin for Selected Object Count). For single-point primary assay plates, an additional run-wise median correction was applied to reduce screen artifacts (e.g. uneven dispense), whereas no correction was applied to triplicate reconfirmation and dose-response plates. For primary screening, a compound is considered a hit by a ≥ 70% reduction in Corrected Spot Count. Compounds that caused moderate cytotoxicity were filtered out (i.e., excluding all Corrected Selected Object Counts ≤ -60%). Dose-response curves were fit with Genedata Analyzer using the Smart Fit function.

[1] = HepG2 72 h cytotoxicity (CellTiter-Glo); assay type: cell-based, human; settings: human
Experimental: (§2) Two mammalian cell lines were used for counter-screening for general cytotoxicity of hit compounds: human embryonic kidney cells (HEK293T; ATCC CRL-3216) and human hepatocellular carcinoma cells (HepG2; ATCC HB-8065). […] Compounds were pre-spotted into tissue culture-treated white solid-bottomed 1536-well plates (Greiner) in a 1:3 dose-response dilution (top concentration 20 μM). HEK293T and HepG2 cells were diluted to 75×10^3 cells/mL and 150×10^3 cells/mL, respectively, and 5 μL/well were dispensed into assay plates with a MultiFlo FX Multi-Mode Dispenser (Biotek). […] At the completion of the assay, CellTiter-Glo (Promega) was prepared at 1:2 (reagent:water) of the manufacturer’s instructions, and 2 μL were dispensed into each well. After a 5 min incubation at room temperature, luminescence readings were measured with an EnVision Multilabel Plate Reader (Perkin Elmer). […] were uploaded into Genedata Screener (v13.0-Standard), and data normalized to DMSO- and puromycin-treated wells. A four-parameter non-linear regression curve fit was applied to dose-response data using Genedata to determine the half maximal cytotoxic concentration (CC50) of each compound.

[2] = Pharmacokinetic study in mice (plasma, feces, urine); settings: 20 mg/kg oral; for fecal excretion (unchanged), first 24 h: mean ± SEM; for peak plasma concentration: mean ± SEM n=3
[3] = test system: Cryptosporidium hominis (TU502); assay: C. hominis proliferation in HCT-8 cells, 48 h high-content imaging assay; assay type: cell-based; settings: Cryptosporidium hominis
Experimental: Methods for continuous, in vitro cultivation of Cryptosporidium spp. have not been well established. Instead, in vivo oocyst propagation of C. parvum is performed in calves, a more promiscuous Cryptosporidium species for animal and human infections. For C. hominis, gnotobiotic piglets are the primary means of propagation. The calf is the more accessible model, making C. parvum the more convenient species to screen. However, C. hominis is equally clinically relevant with regards to human cryptosporidiosis. […] High purity powders of the 10 filtered C. parvum Bioactives screen hits and both GHCDL screen hits were tested against C. hominis (TU502) to confirm activity against both species.
as §1
C. parvum oocysts (Iowa strain, isolated from infected calves) were purchased from the Sterling Parasitology Laboratory, University of Arizona, and stored at 4°C for ≤ 3 months in an antibiotic solution (0.01% Tween 20 containing 100 U/mL penicillin and 100 μg/mL gentamicin). C. hominis oocysts (TU502, isolated from gnotobiotic piglets) were purchased from the Tzipori Laboratory, Cummings School of Veterinary Medicine, Tufts University, and stored at 4°C for ≤ 2 weeks in an antibiotic solution (100 U/mL penicillin and 100 μg/mL streptomycin). For infection of assay plates, 24 h after cell seeding, oocysts were excysted and prepared for inoculation as previously described. Briefly, the oocysts were diluted into 1 mL pre-warmed 10 mM HCl and then incubated in a 37°C water bath for 10 min. Oocysts were then pelleted at 3,000×g for 1 min in a microcentrifuge (Thermo), and the supernatant was carefully aspirated. Oocysts were resuspended in 2 mM sodium taurocholate in DPBS++ (with 0.9 mM CaCl2 and 0.5 mM MgCl2) and incubated at room temperature for 20 min. After incubation in bile salts, the oocysts were diluted 1:100 and free sporozoites and intact oocysts were enumerated to determine the percentage of excystation.
Plates were then washed twice with phosphate buffered saline (PBS). […] To prevent non-specific binding, the cells were blocked with SuperBlock™ T20 blocking agent (Thermo) for 1 h at room temperature. Cryptosporidium parasites were stained with 1 μg/mL fluorescein isothiocyanate (FITC)-conjugated Vicia villosa lectin (Vector Laboratories) in 1:10 diluted SuperBlock™ in PBS-T, supplemented with 3 μM 4',6-diamidino-2-phenylindole (DAPI) to visualize host cell nuclei. Staining was for 1 h at room temperature in the dark. Finally, cells were washed twice with PBS-T and the plates were sealed with adhesive foil. The plates were imaged with a CellInsight CX5 High Content Screening Platform (Thermo) with a 10× objective. […] The software identified primary objects (HCT-8 host cells) and spots within allowed distances to the nuclei (Cryptosporidium). Both cytotoxicity against HCT-8 cells (number of nuclei relative to DMSO-treated controls) and Cryptosporidium inhibition (spot counts relative to DMSO-treated controls) were assessed.
Images were processed by the HCS Studio Scan software, and Selected Object Count (HCT-8 cells) and Spot Count (Cryptosporidium) were analyzed in Genedata Screener (v13.0-Standard). Spot Count and Selected Object Count were normalized to neutral controls minus inhibitors (floxuridine for Spot Count, and puromycin for Selected Object Count).

[4] = HEK293T 72 h cytotoxicity (CellTiter-Glo); assay type: cell-based, human; settings: human
Experimental: as §2

[5] = 7% Tween 80, 3% ethanol, 90% water
[6] = in HCT-8 cells, 48 h, value (SD; n), read-out: C. hominis 48H Assay EC50 [µM] (SD; n)

| dosage excreted in the urine, first 48 h [2] [%] | plasma concentration dropped to, within first 24 h post dosing [2] [ng/mL] | fecal excretion (unchanged), first 24 h [2, 5] | peak plasma concentration [2, 5] [ng/mL] | EC50 [3, 6] [µM] | time plasma concentrations remained stable after the initial maximal concentration [2] | fecal excretion (unchanged), first 24 h ([2]; MC-Tween) | peak plasma concentration ([2]; MC-Tween, within first 24 h) [ng/mL] | fecal excretion (unchanged), first 24 h ([2]; corn oil) | peak plasma concentration ([2]; corn oil, within first 24 h) [ng/mL] | mean fecal excretion, next 48 h ([2]; either formulation) [%] | Structure (SMILES) | CC50 at 48 h (in vitro) [µM] | CC50 at 72 h [1] [µM] | CC50 at 72 h [4] [µM] | CC50 at 48 h (in vitro; HCT-8 cells) [µM] | CC50 at 72 h ([1]; HepG2 cells, 72 h, value (SD; n), read-out: HepG2 72H Cytotoxicity CC50 [µM] (SD; n)) | EC50 ([3]; HCT-8, same in vitro host cell line, read-out: EC50 against C. hominis) [µM] | CC50 at 72 h ([4]; HEK293T cells, 72 h, value (SD; n), read-out: HEK293T 72H Cytotoxicity CC50 [µM] (SD; n)) |
| --- | --- | --- | --- | --- | --- | --- | --- | --- | --- | --- | --- | --- | --- | --- | --- | --- | --- | --- |
| 1.6 | 6.7 ± 0.3 | 8.9% ± 0.5% | 1282 ± 154 | 0.457 |  |  |  |  |  |  | CCOc1ccc2cc(-c3nn(CC4CCN(C)CC4)c4ncnc(N)c34)ccc2c1 [BKI-1294] | > 12.5 | 11.1 | 12.4 |  |  |  |  |
| < 0.15 |  |  |  | 0.341 | at least 20 hours | 25.7% ± 13.3% | 288 ± 2 | 14.8% ± 3.1% | 445 ± 61 | < 2 | CC(C)/N=c1\cc2n(-c3ccc(Cl)cc3)c3ccccc3nc-2cc1Nc1ccc(Cl)cc1 [Clofazimine] |  |  |  | > 12.5 | > 20 | 0.34 | > 20 |
